Experimental data reported in patent US12630498B2 (Genzyme Corporation, priority 2019, dated 2026).

Legend:
[1] = target: T1, human Cystic Fibrosis Transmembrane Conductance Regulator (CFTR) harboring the ΔF508 mutation (Homo sapiens, UniProt P13569, DEL508-508); test: H441 cell ΔF508-CFTR-HRP cell surface assay (Emax and EC50); assay type: cell-based; conditions: for Emax: NCI-H441, NA = Not active
T1 construct: expressed in transfected cells; host or cells: H441 carcinoma line (G418-selected)
T1 sequence (P13569 with tags, fused parts or gaps DEL508-508): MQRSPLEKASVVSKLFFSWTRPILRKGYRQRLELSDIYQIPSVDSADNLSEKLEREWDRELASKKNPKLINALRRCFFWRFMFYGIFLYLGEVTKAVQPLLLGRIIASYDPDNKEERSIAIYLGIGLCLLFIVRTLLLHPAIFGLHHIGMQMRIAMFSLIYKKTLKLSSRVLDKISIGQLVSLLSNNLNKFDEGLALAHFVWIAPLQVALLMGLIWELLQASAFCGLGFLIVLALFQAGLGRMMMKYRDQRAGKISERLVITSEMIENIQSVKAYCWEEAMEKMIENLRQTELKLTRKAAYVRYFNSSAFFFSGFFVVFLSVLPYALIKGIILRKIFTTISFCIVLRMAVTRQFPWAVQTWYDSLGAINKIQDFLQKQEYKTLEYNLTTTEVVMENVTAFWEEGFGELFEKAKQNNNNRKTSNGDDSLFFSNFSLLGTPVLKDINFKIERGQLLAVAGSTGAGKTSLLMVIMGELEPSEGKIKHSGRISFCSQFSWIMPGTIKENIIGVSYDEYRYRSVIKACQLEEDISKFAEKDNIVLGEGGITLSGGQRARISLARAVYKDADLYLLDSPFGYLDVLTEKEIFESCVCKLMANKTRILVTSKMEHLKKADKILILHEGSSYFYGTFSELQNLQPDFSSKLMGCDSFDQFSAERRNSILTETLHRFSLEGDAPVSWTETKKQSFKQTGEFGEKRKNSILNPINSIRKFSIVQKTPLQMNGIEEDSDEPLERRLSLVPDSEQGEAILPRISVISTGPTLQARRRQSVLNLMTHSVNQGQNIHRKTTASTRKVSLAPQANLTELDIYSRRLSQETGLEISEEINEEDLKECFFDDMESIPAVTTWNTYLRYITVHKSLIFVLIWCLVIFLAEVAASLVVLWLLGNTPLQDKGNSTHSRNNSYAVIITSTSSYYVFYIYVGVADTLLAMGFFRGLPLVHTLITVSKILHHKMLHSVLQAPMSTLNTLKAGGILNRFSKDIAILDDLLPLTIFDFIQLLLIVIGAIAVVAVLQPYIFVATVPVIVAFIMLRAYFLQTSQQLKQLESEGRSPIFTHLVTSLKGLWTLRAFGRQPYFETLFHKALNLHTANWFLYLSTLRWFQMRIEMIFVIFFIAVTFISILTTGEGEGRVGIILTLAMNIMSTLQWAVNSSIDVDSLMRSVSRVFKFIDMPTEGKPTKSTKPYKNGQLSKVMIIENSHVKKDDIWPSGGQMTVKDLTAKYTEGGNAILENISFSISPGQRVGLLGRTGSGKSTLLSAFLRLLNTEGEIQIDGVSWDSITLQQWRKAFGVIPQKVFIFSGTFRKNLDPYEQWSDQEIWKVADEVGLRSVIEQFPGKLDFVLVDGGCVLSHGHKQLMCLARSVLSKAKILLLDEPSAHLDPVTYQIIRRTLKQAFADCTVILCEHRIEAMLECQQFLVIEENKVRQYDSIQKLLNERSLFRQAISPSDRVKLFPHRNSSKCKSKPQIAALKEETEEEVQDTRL
Method in brief: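 H441 and 41o- bronchial epithelial cells expressing ΔF508-CFTR with an extracellular-loop-4 HRP tag were treated with a 15-point compound series (24.5–0.001 μM) for two nights, H441 at 27° C, 41o- at 37° C with 0.0005 mg/ml doxycycline. Surface HRP luminescence read; % of maximum VX809 signal and EC50 derived.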

[2] = target: T2, CFTR-mediated transepithelial chloride transport in primary human bronchial epithelial cells from a ΔF508 homozygous CF donor (Homo sapiens, UniProt P13569, DEL508-508); test: TECC24 recording of CFTR-mediated transepithelial chloride transport in CF-HBE cells (AUC fold over DMSO); assay type: cell-based; conditions: test agent 10 μM, 48 hours incubation, AUC of forskolin-stimulated IEQ relative to DMSO
T2 construct: Primary human bronchial epithelial cells from a ΔF508 homozygous CF donor; host or cells: primary CF-HBE cells, ΔF508 homozygous donor
T2 sequence (P13569 with tags, fused parts or gaps DEL508-508): as above
Method in brief: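 Primary ΔF508/ΔF508 CF-HBE cells on inserts exposed to test agent in IL-13-containing medium for 48 h at 36.5 °C. Current-clamp VT/TEER recording in pH 7.4 HEPES saline with benzamil 10 μM, forskolin 10 μM, then CFTRinh-172 20 μM. AUC of equivalent Cl⁻ current between forskolin and inhibitor, expressed as ratio over vehicle.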

| SMILES | EC50 [1] [nM] | Emax [1] [%] | TECC24 AUC fold over DMSO @10 μM [2] |
| --- | --- | --- | --- |
| O=C(N[C@@H](Cc1ccc(C(F)(F)F)cc1)C(=O)O)c1ccc2ccccc2c1OCc1ccc(C(F)(F)F)cc1 [Example 104, (S)-2-(1-((4-(trifluoromethyl)benzyl)oxy)-2-naphthamido)-3-(4-(trifluoromethyl)phenyl)propanoic Acid] | 7700 | 77.8 | C (“C” refers to AUC @10 uM <4) |
| CC(C)(SCC1CC1(F)F)[C@H](NC(=O)c1ccc2ccccc2c1OCc1ccc(SC(F)(F)F)cc1)C(=O)O (stereo partly drawn) [Example 164, (2R)-3-(((2,2-difluorocyclopropyl)methyl)thio)-3-methyl-2-(1-((4-((trifluoromethyl)thio)benzyl)oxy)-2-naphthamido)butanoic Acid] | 600 | 112 | C (“C” refers to AUC @10 uM <4) |
| O=C(N[C@H](C(=O)O)C1CCCC1)c1ccc2cc(F)ccc2c1OCc1ccc(C(F)(F)F)cc1 [Example 153, (S)-2-cyclopentyl-2-(6-fluoro-1-((4-(trifluoromethyl)benzyl)oxy)-2-naphthamido)acetic Acid] | 1500 | 73.5 | B (“B” refers to AUC @10 uM between 4-6) |
| CCC(C)(C)[C@H](NC(=O)c1ccc2ccc(C)cc2c1OCCCC(C)(C)C)C(=O)O [Example 257, (2S)-2-[[1-(4,4-dimethylpentoxy)-7-methyl-naphthalene-2-carbonyl]amino]-3,3-dimethyl-pentanoic Acid] | 600 | 369 | A (“A” refers to AUC @10 uM >6) |
| O=C(N[C@@H](CCc1ccccc1)C(=O)O)c1ccc2ccccc2c1OCc1ccc(C(F)(F)F)cc1 [Example 88, (S)-4-phenyl-2-(1-((4-(trifluoromethyl)benzyl)oxy)-2-naphthamido)butanoic Acid] | 7300 | 64.4 | C (“C” refers to AUC @10 uM <4) |
| CC(C)(C)[C@H](NC(=O)c1ccc2ccccc2c1OC[C@H]1CC[C@H](C(F)(F)F)CC1)C(=O)O [Example 222, (2S)-3,3-dimethyl-2-[[1-[[4-(trifluoromethyl)cyclohexyl]methoxy]naphthalene-2-carbonyl]amino]butanoic Acid] | 2900 | 154 | A (“A” refers to AUC @10 uM >6) |
| O=C(N[C@H](C(=O)O)C1CCCC1)c1ccc2ccccc2c1OCc1ccc(C(F)(F)F)cc1 [Example 154, (S)-2-cyclopentyl-2-(1-((4-(trifluoromethyl)benzyl)oxy)-2-naphthamido)acetic Acid] | 1900 | 118 | A (“A” refers to AUC @10 uM >6) |
| O=C(N[C@H](C(=O)O)C(c1ccccc1)c1ccccc1)c1ccc2ccccc2c1OCC1CCCCC1 [Example 199, (S)-2-(1-(cyclohexylmethoxy)-2-naphthamido)-3,3-diphenylpropanoic Acid] | 500 | 129 | C (“C” refers to AUC @10 uM <4) |
| CC(C)(C)[C@H](NC(=O)c1ccc2ccccc2c1OCC1CCCCC1)C(=O)O [Example 72, (S)-2-(1-(cyclohexylmethoxy)-2-naphthamido)-3,3-dimethylbutanoic Acid] | 3700 | 144 | C (“C” refers to AUC @10 uM <4) |
| CC1(C(NC(=O)c2ccc3ccccc3c2OCc2ccc(S(F)(F)(F)(F)F)cc2)C(=O)O)CCCCC1 (centres unmarked) [Example 48, 2-(1-methylcyclohexyl)-2-(1-((4-(pentafluoro-16-sulfanyl)benzyl)oxy)-2-naphthamido)acetic Acid] | 700 | 112 | C (“C” refers to AUC @10 uM <4) |
| CC(C)(C)C[C@H](NC(=O)c1ccc2ccccc2c1OCc1ccc(S(F)(F)(F)(F)F)cc1)C(=O)O [Example 110, (S)-4,4-dimethyl-2-(1-((4-(pentafluoro-16-sulfanyl)benzyl)oxy)-2-naphthamido)pentanoic Acid] | 2100 | 83.1 | B (“B” refers to AUC @10 uM between 4-6) |
| CC1(C(NC(=O)c2ccc3ccccc3c2OCc2ccc(OC(F)(F)F)cc2)C(=O)O)CCCCC1 (centres unmarked) [Example 1, 2-(1-methylcyclohexyl)-2-[[1-[[4-(trifluoromethoxy)phenyl]methoxy]naphthalene-2-carbonyl]amino]acetic Acid] | 700 | 164 | B (“B” refers to AUC @10 uM between 4-6) |
| CC(c1ccccc1)C(NC(=O)c1ccc2ccccc2c1OCc1ccc(C(F)(F)F)cc1)C(=O)O (centres unmarked) [Example 127, 3-phenyl-2-(1-((4-(trifluoromethyl)benzyl)oxy)-2-naphthamido)butanoic Acid] | 1100 | 98.5 | C (“C” refers to AUC @10 uM <4) |

Other lines, results leading:

| EC50 [1] [nM] | Emax [1] [%] | TECC24 AUC fold over DMSO @10 μM [2] | SMILES |
| --- | --- | --- | --- |
| 100 | 365 | A (“A” refers to AUC @10 uM >6) | CC(C)(C)[C@H](NC(=O)c1ccc2ccc(C(F)F)cc2c1OCc1ccc(C(F)(F)F)cc1)C(=O)O [Example 244, (2S)-2-[[7-(difluoromethyl)-1-[[4-(trifluoromethyl)phenyl]methoxy]naphthalene-2-carbonyl]amino]-3,3-dimethyl-butanoic Acid] |
| 400 | 139 | B (“B” refers to AUC @10 uM between 4-6) | CCC(C)(C)[C@H](NC(=O)c1ccc2c(F)cccc2c1OCc1ccc(OC(F)(F)F)cc1)C(=O)O [Example 226, (2S)-2-[[5-fluoro-1-[[4-(trifluoromethoxy)phenyl]methoxy]naphthalene-2-carbonyl]amino]-3,3-dimethyl-pentanoic Acid] |
| 300 | 152 | A (“A” refers to AUC @10 uM >6) | CCC1([C@H](NC(=O)c2ccc3ccc(F)cc3c2OCc2ccc(OC(F)(F)F)cc2)C(=O)O)CCCC1 [Example 313, (S)-2-(1-ethylcyclopentyl)-2-(7-fluoro-1-((4-(trifluoromethoxy)benzyl)oxy)-2-naphthamido)acetic Acid] |
| 100 | 368 | A (“A” refers to AUC @10 uM >6) | CCC(C)(C)[C@H](NC(=O)c1ccc2ccc(C(F)F)cc2c1OCc1ccc(C(F)(F)F)cc1)C(=O)O [Example 242, (2S)-2-[[7-(difluoromethyl)-1-[[4-(trifluoromethyl)phenyl]methoxy]naphthalene-2-carbonyl]amino]-3,3-dimethyl-pentanoic Acid] |
| 300 | 57.1 | C (“C” refers to AUC @10 uM <4) | CC(C)(C)[C@@H](NC(=O)c1ccc2ccc(C(F)(F)F)cc2c1OCc1ccc(OC(F)(F)F)cc1)C(=O)O [Example 287, (R)-3,3-dimethyl-2-(1-((4-(trifluoromethoxy)benzyl)oxy)-7-(trifluoromethyl)-2-naphthamido)butanoic Acid] |
| 100 | 404 | A (“A” refers to AUC @10 uM >6) | CCC(C)(C)[C@H](NC(=O)c1ccc2ccc(C)cc2c1OCc1ccc(C(F)(F)F)cc1)C(=O)O [Example 288, (S)-3,3-dimethyl-2-(7-methyl-1-((4-(trifluoromethyl)benzyl)oxy)-2-naphthamido)pentanoic Acid] |
| – | 264 | A (“A” refers to AUC @10 uM >6) | CCC1([C@H](NC(=O)c2ccc3ccc(Cl)cc3c2OCc2ccc(C(F)(F)F)cc2)C(=O)O)CCCC1 [Example 258] |
| 700 | 176 | A (“A” refers to AUC @10 uM >6) | CC(C)(C)[C@H](NC(=O)c1ccc2ccc(C#N)cc2c1OCc1ccc(OC(F)(F)F)cc1)C(=O)O [Example 254, (2S)-2-[[7-cyano-1-[[4-(trifluoromethoxy)phenyl]methoxy]naphthalene-2-carbonyl]amino]-3,3-dimethyl-butanoic Acid] |
| 100 | 270 | A (“A” refers to AUC @10 uM >6) | CCC(C)(C)[C@H](NC(=O)c1ccc2ccc(C(F)F)cc2c1OCc1ccc(OC(F)(F)F)cc1)C(=O)O [Example 250, (2S)-2-[[7-(difluoromethyl)-1-[[4-(trifluoromethoxy)phenyl]methoxy]naphthalene-2-carbonyl]amino]-3,3-dimethyl-pentanoic Acid] |
| 800 | 112 | B (“B” refers to AUC @10 uM between 4-6) | C=CC(C)(C)C(NC(=O)c1ccc2ccccc2c1OCc1ccc(C(F)(F)F)cc1)C(=O)O (centres unmarked) [Example 223, 3,3-dimethyl-2-[[1-[[4-(trifluoromethyl)phenyl]methoxy]naphthalene-2-carbonyl]amino]pent-4-enoic Acid] |
| 900 | 68.4 | A (“A” refers to AUC @10 uM >6) | CC(C)(C)[C@@H](NC(=O)c1ccc2ccc(F)cc2c1OCc1ccc(C(F)(F)F)cc1)C(=O)O [Example 261, (2R)-2-[[7-fluoro-1-[[4-(trifluoromethyl)phenyl]methoxy]naphthalene-2-carbonyl]amino]-3,3-dimethyl-butanoic Acid] |
